Test results from ChEMBL document CHEMBL3244391, “Antiviral activity of aliphatic nucleoside analogues: structure-function relationship” (1979).

Tested on: Vaccinia virus
Assay: Antiviral activity against Vaccinia virus infected in rabbit primary kidney cells assessed as inhibition of viral cytopathogenicity after 3 days
Format: functional, Orthopoxvirus vaccinia

Structure (SMILES)	MID
Nc1ncnc2c1ncn2CCC(O)CCO (racemic)	>400 µg/mL
OC[C@@H](O)Cn1cnc2c(O)ncnc21	>400 µg/mL
Nc1ncnc2c1nc(Br)n2CC(O)CO (racemic)	>200 µg/mL
Nc1ncnc2c1ncn2CC(N)CO (racemic)	>400 µg/mL
CCCCCCCCCCCCCCCC(=O)OCC(O)Cn1cnc2c(N)ncnc21 (racemic)	100 µg/mL
CSc1nc(N)c2ncn(CC(O)CO)c2n1 (racemic)	400 µg/mL
Nc1ncnc2c1nc(O)n2CC(O)CO (racemic)	>400 µg/mL
CC(O)Cn1cnc2c(N)ncnc21 (racemic)	>400 µg/mL
Nc1ncnc2c1ncn2CC[C@H](O)CO	200 µg/mL
Nc1nc2c(ncn2CC(O)CO)c(=O)[nH]1 (racemic)	>400 µg/mL
NCCn1cnc2c(N)ncnc21	>400 µg/mL
Nc1ncnc2c1ncn2C[C@H](O)CO [(S)-DHPA]	10 µg/mL
CN(C)c1ncnc2c1ncn2CC(O)CO (racemic)	>400 µg/mL
C[C@@H](O)[C@@H](O)Cn1cnc2c(N)ncnc21 (racemic)	150 µg/mL
Nc1c2ncn(CC(O)CO)c2nc[n+]1[O-] (racemic)	>400 µg/mL
Nc1ccn(CC(O)CO)c(=O)n1 (racemic)	>400 µg/mL
CNc1ncnc2c1ncn2CC(O)CO (racemic)	>400 µg/mL
Nc1ncnc2c1ncn2CCCO	300 µg/mL
Nc1nc(O)c2c(ncn2CC(O)CO)n1 (racemic)	>400 µg/mL

Structure (SMILES)	MID
OCC(O)Cn1cnc2c(S)ncnc21 (racemic)	>400 µg/mL
O=c1ccn(C[C@@H](O)[C@H](O)CO)c(=O)[nH]1	>400 µg/mL
Nc1ncnc2c1ncn2CCO	>400 µg/mL
[N-]=[N+]=NCC(Cn1cnc2c(N)ncnc21)N=[N+]=[N-] (racemic)	150 µg/mL
COCC(Cn1cnc2c(N)ncnc21)OC (racemic)	>400 µg/mL
O=c1[nH]c(=O)n([C@H]2C[C@H](O)[C@@H](CO)O2)cc1I [IDOXURIDINE]	0.1 µg/mL
Nc1ncnc2c1ncn2CCC(O)CO (racemic)	100 µg/mL
Nc1ncnc2c1ncn2C[C@@H](O)[C@@H](O)CO	>400 µg/mL
Cc1cn(C[C@@H](O)CO)c(=O)[nH]c1=O	>400 µg/mL
O=c1ccn(C[C@H](O)CO)c(=O)[nH]1	>400 µg/mL
Nc1ncnc2c1ncn2C(CO)CO	>400 µg/mL
O=c1ccn(CC(O)C(O)CO)c(=O)[nH]1 (racemic)	>400 µg/mL
Nc1ncnc2c1ncn2CC(O)C(O)CO (racemic)	400 µg/mL
Nc1ncnc2c1ncn2CC(O)CO (racemic)	40 µg/mL
NCC(N)Cn1cnc2c(N)ncnc21 (racemic)	>400 µg/mL
COC(CO)Cn1cnc2c(N)ncnc21 (racemic)	>400 µg/mL
COCC(O)Cn1cnc2c(N)ncnc21 (racemic)	>400 µg/mL
CCC(=O)OCC(Cn1cnc2c(N)ncnc21)OC(=O)CC (racemic)	>400 µg/mL
Nc1ccn([C@@H]2O[C@H](CO)[C@@H](O)[C@@H]2O)c(=O)n1 [CYTARABINE]	0.02 µg/mL

Structure (SMILES)	MID
Nc1ncnc2c1nc(S)n2CC(O)CO (racemic)	>400 µg/mL
Nc1ncnc2c1ncn2C[C@H](O)[C@@H](O)CO	>400 µg/mL
O=c1ccn(CCC(O)CCO)c(=O)[nH]1 (racemic)	>400 µg/mL
Nc1nc(N)c2ncn(CC(O)CO)c2n1 (racemic)	>400 µg/mL
NCC(O)Cn1cnc2c(N)ncnc21 (racemic)	400 µg/mL
Cc1cn(C[C@H](O)CO)c(=O)[nH]c1=O	>400 µg/mL
Cc1c[nH]c(=O)n(C[C@H](O)CO)c1=O	>400 µg/mL
CC(C)(C)C(=O)OCC(Cn1cnc2c(N)ncnc21)OC(=O)C(C)(C)C (racemic)	300 µg/mL
Nc1ncnc2c1ncn2C[C@H](O)[C@H](O)CO	200 µg/mL
Nc1ncnc2c1ncn2C[C@@H](O)CO	>400 µg/mL
CC(=O)OC[C@H](Cn1cnc2c(N)ncnc21)OC(C)=O	>400 µg/mL
O=c1cnn(CC(O)CO)c(=O)[nH]1 (racemic)	>400 µg/mL
CC(C)(C)C(=O)OCC(O)Cn1cnc2c(N)ncnc21 (racemic)	300 µg/mL
Nc1ncnc2c1ncn2C[C@@H](O)[C@H](O)CO	>400 µg/mL
O=c1ccn(CC[C@H](O)CO)c(=O)[nH]1	>400 µg/mL
[N-]=[N+]=NCC(O)Cn1cnc2c(N)ncnc21 (racemic)	>400 µg/mL
O=c1ccn(C[C@H](O)[C@H](O)CO)c(=O)[nH]1 (racemic)	>400 µg/mL
Nc1ncnc2c1ncn2[C@@H]1O[C@H](CO)[C@@H](O)[C@@H]1O [VIDARABINE]	0.3 µg/mL
